What was measured:
[1] = test system: perennial ryegrass; assay: Example 10 greenhouse dandelion and turf test with sodium sulfate, grass damage; format: in vivo, Lolium perenne; details: sprayed once at 200 ml/m^2, six days after first spraying
Protocol: (§1) Unless otherwise specified, all of the iron solutions were made using the same molar concentration of iron ion as chelating agent. In the liquid formulations samples were prepared by diluting a metal chelate, iron HEDTA (Neu 1173H) or iron EDTA to the desired level of iron as specified using stirring. Neu 1173H contains the stabilizer sodium citrate at 1.5% prior to dilution. Dilutions of iron HEDTA to the level of 0.25% Fe incorporate 0.08% sodium citrate into the spray solutions. KCl was then diluted and added to the diluted metal chelate.
(§2) In the dry formulations, the iron chelate was simply blended with KCl and with other fertilizer ingredients. Samples were usually prepared within 48 hours of treatment. All of the outside tests were done on areas of grass and white clover that were at least 2 months old. For the greenhouse tests, white clover and dandelion were grown in a commercial greenhouse mix using supplemental lighting and heating. Each plant was grown in a 2¼ inch pot to a minimum diameter of 15-20 cm. Perennial ryegrass was grown in 2¼ inch pots in the same greenhouse conditions as above and they are at least 4 weeks old at the time of application. […]
(§3) All plant damage was visually assessed using a percentage rating scale from 0 (no injury) to 100% (death). […] Percentage control was calculated from the respective weed cover data (e.g. preferably using the Henderson & Tilton formula). […]

[2] = test system: dandelion; assay: Example 10 greenhouse dandelion and turf test with sodium sulfate, dandelion damage; format: in vivo, Taraxacum officinale; details: sprayed once at 200 ml/m^2, six days after first spraying
Protocol: as §1, §2, §3

[3] = test system: white clover; assay: Example 5 greenhouse white clover and turf test, white clover damage; format: in vivo, Trifolium repens; details: sprayed twice at 100 ml/m^2, seven days after first spraying
Protocol: as §1, §2, §3

[4] = test system: perennial ryegrass; assay: Example 5 greenhouse white clover and turf test, grass damage; format: in vivo, Lolium perenne; details: sprayed twice at 100 ml/m^2, seven days after first spraying
Protocol: as §1, §2, §3

SMILES | Grass Damage (%) [1] | Dandelion damage (%) [2] | White Clover Damage (%) [3] | Grass Damage (%) [4]
O=S(=O)([O-])[O-].[Na+].[Na+] [Na2SO4 2%, sodium sulfate] | 4% | 0% | – | –
[Cl-].[K+] [KCl 2%, potassium chloride] | – | – | 0% | 0%

Reference: patent US20190124928A1, “ENHANCED HERBICIDAL COMPOSITIONS OF TRANSITION METAL CHELATES” (W. Neudorff GMBH KG, priority 2016, published 2019)
